From patent EP4289427A1, “DIHYDRO[1,8]NAPHTHYRIDIN-7-ONE AND PYRIDO[3,2-B][1,4]OXAZIN-3-ONE FOR USE IN TREATING CANCER, AND METASTASES IN PARTICULAR” (Anagenesis Biotechnologies, priority 2022, dated 2023)

How the values were obtained:
[1] = system: HUVECs; assay: Tube formation assay (anti-angiogenic activity); assay type: cell-based, human; settings: for IC50: Homo sapiens, HUVEC; as to Angiogenesis inhibition: test concentration or dose not given here
In short: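 HUVECs plated at 5000 cells/well on reduced growth factor basement membrane matrix, then exposed to compounds for 16 to 18 hours at 37°C. Cells stained with calcein-AM; tube networks imaged by confocal fluorescence microscopy and quantified.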

[2] = system: EoL-1 cells; assay: Cytotoxicity assay (CellTiter-Glo 2.0) on EoL-1 cells; assay type: cell-based, Human; settings: incubation 1 day; for IC50: Homo sapiens, EOL1, 24 h; as to Cytotoxicity: test concentration or dose not given here
In short: (§1)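 Cells were seeded on day 0 in their own growth medium, then exposed to compounds for a line-dependent period. CellTiter-Glo 2.0 was added and left 10 min in the dark at room temperature, and luminescence from cellular ATP gave viability and relative IC50.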

[3] = system: 4T1 cells; assay: Epithelial-mesenchymal transition marker expression by qRT-PCR; assay type: cell-based, Mouse; parameters: key: ↗: increased expression; ↘: decreased expression; =: unchanged expression levels; settings: 24 hours, expression normalized against RPL13
Text: The epithelial-mesenchymal transition (hereafter "EMT") is a process by which epithelial cells lose their cell polarity and cell-cell adhesion while gaining migratory and invasive properties to become mesenchymal stem cells. EMT is commonly measured by quantifying both epithelial and mesenchymal marker's expression by quantitative reverse-transcription polymerase chain reaction (hereafter "qRT-PCR"). EMT inhibition is observed when epithelial markers are stable or increased while mesenchymal markers are decreased.
4T1 cells were treated with compounds to be tested or DMSO for 24 hours. 4T1 cells were then harvested directly in NucleoZol lysis buffer (cat. no. 740404.200 from Macherey-Nagel), according to the manufacturer's instructions. Total RNA was extracted using the NucleoSpin RNA set for NucleoZol (cat. no. 740406.50 from Macherey-Nagel). The quantity and purity of RNA was determined using a Quickdrop (Molecular Devices). RT-PCR was performed on 500 ng total RNA using iScript gDNA clear cDNA synthesis Kit (cat.no. 1725035 from Biorad). The qPCR was run on a QuantStudio 5 real time thermocycler (Applied Biosystems), with PowerUp SYBR Green Master Mix (cat.no. A25742 from Fisher Scientific) and the primers listed in Table 16.
Expression data of EMT markers have been normalized against expression data of the housekeeping gene RPL13.

[4] = system: 4T1 cells; assay: Cytotoxicity assay (CellTiter-Glo 2.0) on 4T1 cells; assay type: cell-based, Mouse; settings: incubation 2 days; for IC50: Mus musculus, 48 h; as to Cytotoxicity: test concentration or dose not given here
In short: as §1

[5] = system: MDA-MB-231 cells; assay: Cytotoxicity assay (CellTiter-Glo 2.0) on MDA-MB-231 cells; assay type: cell-based, Human; settings: incubation 3 days; for IC50: Homo sapiens, 72 h; as to Cytotoxicity: test concentration or dose not given here
In short: as §1

[6] = system: RD cells; assay: Cytotoxicity assay (CellTiter-Glo 2.0) on RD cells; assay type: cell-based, Human; settings: for IC50: Homo sapiens; as to Cytotoxicity: test concentration or dose not given here
In short: as §1

[7] = 2 day-treatment, commercial kinase inhibitors
[8] = 4 day-treatment, commercial kinase inhibitors
[9] = 48 h, 2 day-treatment, commercial kinase inhibitors
[10] = 96 h, 4 day-treatment, commercial kinase inhibitors

Row | SMILES | IC50 ([1]; incubation 16 to 18 hours) | Angiogenesis inhibition ([1]; incubation 16 to 18 hours) | IC50 [2] | Cytotoxicity [2] | IC50 [4] | Cytotoxicity [4] | IC50 [5] | Cytotoxicity [5] | Cytotoxicity ([6]; 2 day-treatment) | Cytotoxicity ([6]; 4 day-treatment) | IC50 ([6]; 48 h, 2 day-treatment) | IC50 ([6]; 96 h, 4 day-treatment) | also measured
1 | CC(C)(C)c1cc(NC(=O)Nc2ccc(Oc3ccnc4c3CCC(=O)N4)cc2C(F)(F)F)on1 [Compound 023, 1-(3-tert-butylisoxazol-5-yl)-3-[4-[(7-oxo-6,8-dihydro-5H-1,8-naphthyridin-4-yl)oxy]-2-(trifluoromethyl)phenyl]urea] | 100 to 500 nM | +++ (angiogenesis inhibition ≥ 80%) | 1 to 10 nM | +++ (cytotoxicity ≥ 85%) | 1000 to 5000 nM | +++ (cytotoxicity ≥ 85%) | 1000 to 5000 nM | ++ (50% ≤ cytotoxicity < 85%) | ++ (50% ≤ cytotoxicity < 85%) | ++ (50% ≤ cytotoxicity < 85%) | 1000 to 5000 nM | 1000 to 5000 nM | Epithelial markers E-cadherin [3]: ↗; Epithelial markers EpCAM [3]: =; Mesenchymal markers Fibronectin [3]: ↘; Mesenchymal markers Vimentin [3]: ↘
2 | CSc1cc(Oc2ccnc3c2CCC(=O)N3)ccc1NC(=O)Nc1cc(C(C)(C)C)nn1-c1cccc(CN2CCOCC2)c1 [Compound 047, 1-[5-tert-butyl-2-[3-(morpholinomethyl)phenyl]pyrazol-3-yl]-3-[2-methylsulfanyl-4-[(7-oxo-6,8-dihydro-5H-1,8-naphthyridin-4-yl)oxy]phenyl]urea] | < 100 nM | +++ (angiogenesis inhibition ≥ 80%) | 1 to 10 nM | +++ (cytotoxicity ≥ 85%) | < 1000 nM | +++ (cytotoxicity ≥ 85%) | 1000 to 5000 nM | ++ (50% ≤ cytotoxicity < 85%) | ++ (50% ≤ cytotoxicity < 85%) | ++ (50% ≤ cytotoxicity < 85%) | 5000 to 10000 nM | 1000 to 5000 nM | –
3 | CN(C)Cc1cccc(-n2nc(C(C)(C)C)cc2NC(=O)Nc2ccc(Oc3ccnc4c3OCC(=O)N4)cc2C(F)(F)F)c1 [Compound 048, 1-[5-tert-butyl-2-[3-(dimethylaminomethyl)phenyl]pyrazol-3-yl]-3-[4-[(3-oxo-4H-pyrido[3,2-b][1,4]oxazin-8-yl)oxy]-2-(trifluoromethyl)phenyl]urea] | 100 to 500 nM | +++ (angiogenesis inhibition ≥ 80%) | 1 to 10 nM | ++ (50% ≤ cytotoxicity < 85%) | 1000 to 5000 nM | +++ (cytotoxicity ≥ 85%) | 1000 to 5000 nM | ++ (50% ≤ cytotoxicity < 85%) | ++ (50% ≤ cytotoxicity < 85%) | +++ (cytotoxicity ≥ 85%) | 5000 to 10000 nM | 1000 to 5000 nM | –
4 | CN(C)Cc1ccc(-n2nc(C(C)(C)C)cc2NC(=O)Nc2ccc(Oc3ccnc4c3OCC(=O)N4)cc2C(F)(F)F)cc1 [Compound 049, 1-[5-tert-butyl-2-[4-(dimethylaminomethyl)phenyl]pyrazol-3-yl]-3-[4-[(3-oxo-4H-pyrido[3,2-b][1,4]oxazin-8-yl)oxy]-2-(trifluoromethyl)phenyl]urea] | 100 to 500 nM | +++ (angiogenesis inhibition ≥ 80%) | 10 to 100 nM | ++ (50% ≤ cytotoxicity < 85%) | 1000 to 5000 nM | +++ (cytotoxicity ≥ 85%) | 5000 to 10000 nM | +++ (cytotoxicity ≥ 85%) | +++ (cytotoxicity ≥ 85%) | +++ (cytotoxicity ≥ 85%) | 5000 to 10000 nM | 5000 to 10000 nM | –
5 | CSc1cc(Oc2ccnc3c2CCC(=O)N3)ccc1NC(=O)Nc1cc(C(C)(C)C)nn1-c1cccc(CN(C)C)c1 [Compound 050, 1-[5-tert-butyl-2-[3-(dimethylaminomethyl)phenyl]pyrazol-3-yl]-3-[2-methylsulfanyl-4-[(7-oxo-6,8-dihydro-5H-1,8-naphthyridin-4-yl)oxy]phenyl]urea] | < 100 nM | +++ (angiogenesis inhibition ≥ 80%) | 1 to 10 nM | +++ (cytotoxicity ≥ 85%) | < 1000 nM | +++ (cytotoxicity ≥ 85%) | 1000 to 5000 nM | +++ (cytotoxicity ≥ 85%) | +++ (cytotoxicity ≥ 85%) | +++ (cytotoxicity ≥ 85%) | 1000 to 5000 nM | 1000 to 5000 nM | –
6 | CSc1cc(Oc2ccnc3c2OCC(=O)N3)ccc1NC(=O)Nc1cc(C(C)(C)C)nn1-c1ccc(CCN(C)C)cc1 [Compound 051, 1-[5-tert-butyl-2-[4-[2-(dimethylamino)ethyl]phenyl]pyrazol-3-yl]-3-[2-methylsulfanyl-4-[(3-oxo-4H-pyrido[3,2-b][1,4]oxazin-8-yl)oxy]phenyl]urea] | < 100 nM | +++ (angiogenesis inhibition ≥ 80%) | 1 to 10 nM | +++ (cytotoxicity ≥ 85%) | 1000 to 5000 nM | +++ (cytotoxicity ≥ 85%) | 1000 to 5000 nM | +++ (cytotoxicity ≥ 85%) | +++ (cytotoxicity ≥ 85%) | +++ (cytotoxicity ≥ 85%) | 1000 to 5000 nM | 1000 to 5000 nM | –
7 | CSc1cc(Oc2ccnc3c2OCC(=O)N3)ccc1NC(=O)Nc1cc(C(C)(C)C)nn1-c1ccc(CCN2CCOCC2)cc1 [Compound 052, 1-[5-tert-butyl-2-[4-[2-(morpholino)ethyl]phenyl]pyrazol-3-yl]-3-[2-methylsulfanyl-4-[(3-oxo-4H-pyrido[3,2-b][1,4]oxazin-8-yl)oxy]phenyl]urea] | < 100 nM | +++ (angiogenesis inhibition ≥ 80%) | 1 to 10 nM | +++ (cytotoxicity ≥ 85%) | < 1000 nM | +++ (cytotoxicity ≥ 85%) | 1000 to 5000 nM | +++ (cytotoxicity ≥ 85%) | ++ (50% ≤ cytotoxicity < 85%) | ++ (50% ≤ cytotoxicity < 85%) | 1000 to 5000 nM | 1000 to 5000 nM | –
8 | CSc1cc(Oc2ccnc3c2OCC(=O)N3)ccc1NC(=O)Nc1cc(C(C)(C)C)nn1-c1ccc(CN2CCN(C)CC2)cc1 [Compound 054, 1-[5-tert-butyl-2-[4-[(4-methylpiperazin-1-yl)methyl]phenyl]pyrazol-3-yl]-3-[2-methylsulfanyl-4-[(3-oxo-4H-pyrido[3,2-b][1,4]oxazin-8-yl)oxy]phenyl]urea] | < 100 nM | +++ (angiogenesis inhibition ≥ 80%) | 1 to 10 nM | +++ (cytotoxicity ≥ 85%) | 1000 to 5000 nM | +++ (cytotoxicity ≥ 85%) | 1000 to 5000 nM | +++ (cytotoxicity ≥ 85%) | +++ (cytotoxicity ≥ 85%) | +++ (cytotoxicity ≥ 85%) | 1000 to 5000 nM | 1000 to 5000 nM | –
9 | CNC(=O)c1cc(Oc2ccc(NC(=O)Nc3ccc(Cl)c(C(F)(F)F)c3)c(F)c2)ccn1 [Regorafenib, reference compound] | – | – | – | – | – | – | – | – | – | – | – | – | IC50 ([1]; commercial kinase inhibitors): < 100 nM; Angiogenesis inhibition ([1]; commercial kinase inhibitors): ++ (80% > angiogenesis inhibition ≥ 50%); IC50 ([2]; commercial kinase inhibitors): 1 to 10 nM; Cytotoxicity ([2]; commercial kinase inhibitors): +++ (cytotoxicity ≥ 85%); IC50 ([4]; commercial kinase inhibitors): 5000 to 10000 nM; Cytotoxicity ([4]; commercial kinase inhibitors): ++ (50 % ≤ cytotoxicity < 85 %); IC50 ([5]; commercial kinase inhibitors): 1000 to 5000 nM; Cytotoxicity ([5]; commercial kinase inhibitors): ++ (50 % ≤ cytotoxicity < 85 %); Cytotoxicity [6, 7]: + (20 % ≤ cytotoxicity < 50 %); Cytotoxicity [6, 8]: + (20 % ≤ cytotoxicity < 50 %); IC50 [6, 9]: 5000 to 10000 nM; IC50 [6, 10]: 1000 to 5000 nM
10 | CNC(=O)c1cc(Oc2ccc(NC(=O)Nc3ccc(Cl)c(C(F)(F)F)c3)cc2)ccn1 [Sorafenib, reference compound] | – | – | – | – | – | – | – | – | – | – | – | – | IC50 ([1]; commercial kinase inhibitors): < 100 nM; Angiogenesis inhibition ([1]; commercial kinase inhibitors): + (50% > angiogenesis inhibition ≥ 20%); IC50 ([2]; commercial kinase inhibitors): < 1 nM; Cytotoxicity ([2]; commercial kinase inhibitors): +++ (cytotoxicity ≥ 85%); IC50 ([4]; commercial kinase inhibitors): 5000 to 10000 nM; Cytotoxicity ([4]; commercial kinase inhibitors): + (20 % ≤ cytotoxicity < 50 %); IC50 ([5]; commercial kinase inhibitors): 5000 to 10000 nM; Cytotoxicity ([5]; commercial kinase inhibitors): +++ (cytotoxicity ≥ 85 %); Cytotoxicity [6, 7]: ++ (50 % ≤ cytotoxicity < 85 %); Cytotoxicity [6, 8]: ++ (50 % ≤ cytotoxicity < 85 %); IC50 [6, 9]: ≥ 10000 nM; IC50 [6, 10]: 5000 to 10000 nM
